Earlier results on 2 compounds are cited in patent US6503496B2, “Non-alcoholic and hypoallergenic face cream for the treatment of razor bumps” (priority 2000, dated 2003).

Assay in data set [1]: not given
The source holds these as a separate data set.

With Aluminium Polyhydrate, the “solubility in alkaline solution” value (alkaline solution) is listed as “soluble”. Moreover, for the setting “water”, the solubility in water result is reported as “Practically insoluble”. In the case of `O=C([O-])CN(CCN(CC(=O)[O-])CC(=O)O)CC(=O)[O-].[Na+].[Na+].[Na+]` [Trisodium EDTA], the “toxicity on the skin” value in data set [1] is “No known toxicity”.
